# In PubChem BioAssay AID2060503 (Molecular Pharmacology Branch, DTP, NCI, 2025):
# System: 817829-284-R-J1-PDC complex spheroids, viability
# Test: Anticancer human tumor 817829-284-R-J1-PDC patient-derived colon adenocarcinoma cell line growth inhibition [GQUAD]
# Settings: for IC50: curve of first compound; for viability, T/C: stronger effect = lower value
# Procedure, shortened: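 Tumor cells were grown as complex spheroids with HUVEC endothelial cells and mesenchymal stem cells as stroma. G-quadruplex stabilizers were combined with targeted agents over half-log dilutions from near the clinical Cmax, or from 10 microM.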
# [1] = second compound 0.0316 µM, first compound 0.0316 µM
# [2] = second compound 0.0316 µM, first compound 0.1 µM
# [3] = second compound 0.0316 µM, first compound 0.316 µM
# [4] = second compound 0.0316 µM, first compound 1 µM
# [5] = second compound 0.0316 µM, first compound 3.16 µM
# [6] = second compound 0.0316 µM, first compound 10 µM
# [7] = second compound 0.1 µM, first compound 0.0316 µM
# [8] = second compound 0.1 µM, first compound 0.1 µM
# [9] = second compound 0.1 µM, first compound 0.316 µM
# [10] = second compound 0.1 µM, first compound 1 µM
# [11] = second compound 0.1 µM, first compound 3.16 µM
# [12] = second compound 0.1 µM, first compound 10 µM
# [13] = second compound 0.316 µM, first compound 0.0316 µM
# [14] = second compound 0.316 µM, first compound 0.1 µM
# [15] = second compound 0.316 µM, first compound 0.316 µM
# [16] = second compound 0.316 µM, first compound 1 µM
# [17] = second compound 0.316 µM, first compound 3.16 µM
# [18] = second compound 0.316 µM, first compound 10 µM
# [19] = second compound 1 µM, first compound 0.0316 µM
# [20] = second compound 1 µM, first compound 0.1 µM
# [21] = second compound 1 µM, first compound 0.316 µM
# [22] = second compound 1 µM, first compound 1 µM
# [23] = second compound 1 µM, first compound 3.16 µM
# [24] = second compound 1 µM, first compound 10 µM
# [25] = second compound 3.16 µM, first compound 0.0316 µM
# [26] = second compound 3.16 µM, first compound 0.1 µM
# [27] = second compound 3.16 µM, first compound 0.316 µM
# [28] = second compound 3.16 µM, first compound 1 µM
# [29] = second compound 3.16 µM, first compound 3.16 µM
# [30] = second compound 3.16 µM, first compound 10 µM
# [31] = second compound 10 µM, first compound 0.0316 µM
# [32] = second compound 10 µM, first compound 0.1 µM
# [33] = second compound 10 µM, first compound 0.316 µM
# [34] = second compound 10 µM, first compound 1 µM
# [35] = second compound 10 µM, first compound 3.16 µM
# [36] = second compound 10 µM, first compound 10 µM
# 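Note: spheroids exposed to agents for 7 days before readout.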
# 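Throughout, for viability, T/C: percent viability relative to DMSO vehicle control taken as 100%.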
smiles,measurement,setting,value
C#Cc1c(F)ccc2cc(O)cc(-c3ncc4c(N5CC6CCC(C5)N6)nc(OCC56CCCN5CC(F)C6)nc4c3F)c12 (stereo not drawn) + Cc1cnc(CNC(=O)c2c(=O)c3ccc(N4CCCN(C)CC4)nc3n3c2sc2ccccc23)cn1,IC50,second compound 0.0316 µM,> 10 µM
same,IC50,second compound 0.1 µM,< 0.0316 µM
same,IC50,second compound 0.316 µM,< 0.0316 µM
same,IC50,second compound 1 µM,< 0.0316 µM
same,IC50,second compound 3.16 µM,< 0.0316 µM
same,IC50,second compound 10 µM,< 0.0316 µM
same,"viability, T/C",[1],82.9%
same,"viability, T/C",[2],72.5%
same,"viability, T/C",[3],84.7%
same,"viability, T/C",[4],61%
same,"viability, T/C",[5],91.2%
same,"viability, T/C",[6],89.8%
same,"viability, T/C",[7],30.7%
same,"viability, T/C",[8],35.5%
same,"viability, T/C",[9],32.8%
same,"viability, T/C",[10],36.2%
same,"viability, T/C",[11],33.9%
same,"viability, T/C",[12],35.9%
same,"viability, T/C",[13],22.9%
same,"viability, T/C",[14],28.6%
same,"viability, T/C",[15],24.8%
same,"viability, T/C",[16],24.1%
same,"viability, T/C",[17],29.4%
same,"viability, T/C",[18],27%
same,"viability, T/C",[19],17.9%
same,"viability, T/C",[20],23.4%
same,"viability, T/C",[21],20.6%
same,"viability, T/C",[22],21.8%
same,"viability, T/C",[23],23%
same,"viability, T/C",[24],19.8%
same,"viability, T/C",[25],17%
same,"viability, T/C",[26],20.1%
same,"viability, T/C",[27],18.8%
same,"viability, T/C",[28],17.3%
same,"viability, T/C",[29],22.7%
same,"viability, T/C",[30],20.5%
same,"viability, T/C",[31],0.13%
same,"viability, T/C",[32],0.18%
same,"viability, T/C",[33],0.19%
same,"viability, T/C",[34],0.15%
same,"viability, T/C",[35],0.18%
same,"viability, T/C",[36],0.16%
CCc1c2c(nc3ccc(O)cc13)-c1cc3c(c(=O)n1C2)COC(=O)[C@]3(O)CC + CN(C)c1ccc(Nc2c3ccc(NC(=O)CCN4CCCC4)cc3nc3cc(NC(=O)CCN4CCCC4)ccc23)cc1,IC50,second compound 0.0316 µM,0.00119 µM
same,IC50,second compound 0.1 µM,0.00144 µM
same,IC50,second compound 0.316 µM,0.00221 µM
same,IC50,second compound 1 µM,0.00222 µM
same,IC50,second compound 3.16 µM,0.00278 µM
same,IC50,second compound 10 µM,0.00202 µM
same,"viability, T/C","second compound 0.0316 µM, first compound 0.000999 µM",50.9%
same,"viability, T/C","second compound 0.0316 µM, first compound 0.00316 µM",44.4%
same,"viability, T/C","second compound 0.0316 µM, first compound 0.00999 µM",32.1%
same,"viability, T/C",[1],21.4%
same,"viability, T/C","second compound 0.0316 µM, first compound 0.0999 µM",10.8%
same,"viability, T/C",[3],6.33%
same,"viability, T/C","second compound 0.1 µM, first compound 0.000999 µM",54.2%
same,"viability, T/C","second compound 0.1 µM, first compound 0.00316 µM",40.1%
same,"viability, T/C","second compound 0.1 µM, first compound 0.00999 µM",34.6%
same,"viability, T/C",[7],19.8%
same,"viability, T/C","second compound 0.1 µM, first compound 0.0999 µM",10.2%
same,"viability, T/C",[9],4.96%
same,"viability, T/C","second compound 0.316 µM, first compound 0.000999 µM",53.4%
same,"viability, T/C","second compound 0.316 µM, first compound 0.00316 µM",48.3%
same,"viability, T/C","second compound 0.316 µM, first compound 0.00999 µM",36.7%
same,"viability, T/C",[13],19.2%
same,"viability, T/C","second compound 0.316 µM, first compound 0.0999 µM",10.4%
same,"viability, T/C",[15],5.53%
same,"viability, T/C","second compound 1 µM, first compound 0.000999 µM",61.1%
same,"viability, T/C","second compound 1 µM, first compound 0.00316 µM",44.1%
same,"viability, T/C","second compound 1 µM, first compound 0.00999 µM",32.5%
same,"viability, T/C",[19],21.3%
same,"viability, T/C","second compound 1 µM, first compound 0.0999 µM",11.2%
same,"viability, T/C",[21],5.92%
same,"viability, T/C","second compound 3.16 µM, first compound 0.000999 µM",66.4%
same,"viability, T/C","second compound 3.16 µM, first compound 0.00316 µM",45.1%
same,"viability, T/C","second compound 3.16 µM, first compound 0.00999 µM",35%
same,"viability, T/C",[25],23.7%
same,"viability, T/C","second compound 3.16 µM, first compound 0.0999 µM",12.2%
same,"viability, T/C",[27],6.09%
same,"viability, T/C","second compound 10 µM, first compound 0.000999 µM",60.8%
same,"viability, T/C","second compound 10 µM, first compound 0.00316 µM",42.9%
same,"viability, T/C","second compound 10 µM, first compound 0.00999 µM",28.7%
same,"viability, T/C",[31],20.6%
same,"viability, T/C","second compound 10 µM, first compound 0.0999 µM",11.4%
same,"viability, T/C",[33],6.76%
Nc1ccn(C2OC(CO)C(O)C2(F)F)c(=O)n1 (stereo not drawn) + Cc1[nH]c2ccc(F)cc2c1-c1nc2c3cccnc3c3ncccc3c2[nH]1,IC50,second compound 0.0316 µM,< 0.0316 µM
same,IC50,second compound 0.1 µM,< 0.0316 µM
same,IC50,second compound 0.316 µM,< 0.0316 µM
same,IC50,second compound 1 µM,< 0.0316 µM
same,IC50,second compound 3.16 µM,< 0.0316 µM
same,IC50,second compound 10 µM,< 0.0316 µM
same,"viability, T/C",[1],20.2%
same,"viability, T/C",[2],6.9%
same,"viability, T/C",[3],6.88%
same,"viability, T/C",[4],6.74%
same,"viability, T/C",[5],5.53%
same,"viability, T/C",[6],3.68%
same,"viability, T/C",[7],14.1%
same,"viability, T/C",[8],8.53%
same,"viability, T/C",[9],7.09%
same,"viability, T/C",[10],6.66%
same,"viability, T/C",[11],4.94%
same,"viability, T/C",[12],3.89%
same,"viability, T/C",[13],13.8%
same,"viability, T/C",[14],9.71%
same,"viability, T/C",[15],6.14%
same,"viability, T/C",[16],6.13%
same,"viability, T/C",[17],6.19%
same,"viability, T/C",[18],3.54%
same,"viability, T/C",[19],20.8%
same,"viability, T/C",[20],8.09%
same,"viability, T/C",[21],5.47%
same,"viability, T/C",[22],5.85%
same,"viability, T/C",[23],5.57%
same,"viability, T/C",[24],3.28%
same,"viability, T/C",[25],12.7%
same,"viability, T/C",[26],7.63%
same,"viability, T/C",[27],3.35%
same,"viability, T/C",[28],3.87%
same,"viability, T/C",[29],3.33%
same,"viability, T/C",[30],2.74%
same,"viability, T/C",[31],7.76%
same,"viability, T/C",[32],3.83%
same,"viability, T/C",[33],2.59%
same,"viability, T/C",[34],2.55%
same,"viability, T/C",[35],2.74%
same,"viability, T/C",[36],2.11%
C=CCn1c(=O)c2cnc(Nc3ccc(N4CCN(C)CC4)cc3)nc2n1-c1cccc(C(C)(C)O)n1 + Cc1cnc(CNC(=O)c2c(=O)c3ccc(N4CCCN(C)CC4)nc3n3c2sc2ccccc23)cn1,IC50,second compound 0.0316 µM,0.0529 µM
same,IC50,second compound 0.1 µM,< 0.0316 µM
same,IC50,second compound 0.316 µM,< 0.0316 µM
same,IC50,second compound 1 µM,< 0.0316 µM
same,IC50,second compound 3.16 µM,< 0.0316 µM
same,IC50,second compound 10 µM,< 0.0316 µM
same,"viability, T/C",[1],61.2%
same,"viability, T/C",[2],35.9%
same,"viability, T/C",[3],17.1%
same,"viability, T/C",[4],6.1%
same,"viability, T/C",[5],4.9%
same,"viability, T/C",[6],4.63%
same,"viability, T/C",[7],25.2%
same,"viability, T/C",[8],25.4%
same,"viability, T/C",[9],13.4%
same,"viability, T/C",[10],10.5%
same,"viability, T/C",[11],7.47%
same,"viability, T/C",[12],6.17%
same,"viability, T/C",[13],20.3%
same,"viability, T/C",[14],18.2%
same,"viability, T/C",[15],15.1%
same,"viability, T/C",[16],10.6%
same,"viability, T/C",[17],8.59%
same,"viability, T/C",[18],7.12%
same,"viability, T/C",[19],16.9%
same,"viability, T/C",[20],20.6%
same,"viability, T/C",[21],13.9%
same,"viability, T/C",[22],10.2%
same,"viability, T/C",[23],7.61%
same,"viability, T/C",[24],6.9%
same,"viability, T/C",[25],18.4%
same,"viability, T/C",[26],17%
same,"viability, T/C",[27],14.1%
same,"viability, T/C",[28],9.62%
same,"viability, T/C",[29],6.71%
same,"viability, T/C",[30],6.66%
same,"viability, T/C",[31],0.11%
same,"viability, T/C",[32],0.15%
same,"viability, T/C",[33],0.15%
same,"viability, T/C",[34],0.14%
same,"viability, T/C",[35],0.17%
same,"viability, T/C",[36],0.2%
